Reference: US20250243171A1, “QUINAZOLINE COMPOUNDS FOR TREATMENT OF DISEASE” (Arthrosi Therapeutics, Inc., priority 2021, published 2025)

Columns and labels:
Assay in all cases: EC50 assay: Ba/F3 stable cell proliferation (CCK-8, 72 h)
Type in all cases: cell-based
[1] = target: T1, Ba/F3 stable cells (Homo sapiens, UniProt P00533, DUP768-770, cells depend on it); settings: Ba/F3-EGFR D770-N771insSVD cells
T1 construct: EC50 Ba/F3-EGFR D770-N771insSVD; other: Ba/F3-EGFR D770-N771insSVD cells, 72 h, CCK-8
T1 sequence (P00533 with tags, fused parts or gaps DUP768-770): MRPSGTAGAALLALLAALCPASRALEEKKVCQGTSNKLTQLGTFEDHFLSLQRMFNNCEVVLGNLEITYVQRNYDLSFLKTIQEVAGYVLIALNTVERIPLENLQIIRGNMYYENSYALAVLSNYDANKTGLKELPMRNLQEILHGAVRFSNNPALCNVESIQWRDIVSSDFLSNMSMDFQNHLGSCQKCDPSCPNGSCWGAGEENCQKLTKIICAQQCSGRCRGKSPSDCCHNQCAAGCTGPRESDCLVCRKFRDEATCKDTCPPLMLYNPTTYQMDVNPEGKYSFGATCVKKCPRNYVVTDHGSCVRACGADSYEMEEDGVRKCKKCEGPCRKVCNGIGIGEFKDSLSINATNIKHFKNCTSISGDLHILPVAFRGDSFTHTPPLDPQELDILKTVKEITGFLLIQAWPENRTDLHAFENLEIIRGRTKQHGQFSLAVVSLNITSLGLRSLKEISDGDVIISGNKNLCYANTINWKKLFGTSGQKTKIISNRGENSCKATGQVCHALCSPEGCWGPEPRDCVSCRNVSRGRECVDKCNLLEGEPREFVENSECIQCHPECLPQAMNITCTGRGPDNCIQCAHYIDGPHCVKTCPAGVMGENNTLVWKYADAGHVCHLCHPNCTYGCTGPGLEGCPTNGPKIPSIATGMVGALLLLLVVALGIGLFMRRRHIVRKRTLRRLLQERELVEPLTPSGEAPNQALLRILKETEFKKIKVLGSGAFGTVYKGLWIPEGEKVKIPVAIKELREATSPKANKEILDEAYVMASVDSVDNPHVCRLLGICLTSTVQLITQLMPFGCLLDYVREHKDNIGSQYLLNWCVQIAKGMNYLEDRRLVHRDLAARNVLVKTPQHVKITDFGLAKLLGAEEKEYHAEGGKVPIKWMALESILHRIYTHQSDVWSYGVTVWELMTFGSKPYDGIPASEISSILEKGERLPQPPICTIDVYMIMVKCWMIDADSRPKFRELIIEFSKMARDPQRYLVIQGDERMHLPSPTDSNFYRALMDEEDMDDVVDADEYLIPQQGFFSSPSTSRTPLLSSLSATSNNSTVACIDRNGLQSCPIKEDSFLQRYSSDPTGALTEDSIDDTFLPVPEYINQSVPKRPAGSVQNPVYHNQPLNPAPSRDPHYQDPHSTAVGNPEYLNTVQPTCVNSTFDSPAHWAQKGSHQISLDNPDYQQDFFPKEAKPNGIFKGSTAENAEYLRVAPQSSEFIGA
How it was run: (§1)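 Ba/F3 stable cells were seeded at 4,000 cells/90 μL/well in 96-well plates and held 2 h at 37° C. in 5% CO2, then given 10 μL of serially titrated compound (0.1% DMSO final). After 72 h at 37° C., CCK-8 reagent was added for 4 hours and absorbance read at 450 nm to derive EC50.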

[2] = target: T2, Ba/F3 stable cells (Homo sapiens, UniProt P00533, INS763FQEA, cells depend on it); settings: Ba/F3-EGFR A763-Y764insFQEA cells
T2 construct: EC50 Ba/F3-EGFR A763-Y764insFQEA; other: Ba/F3-EGFR A763-Y764insFQEA cells, 72 h, CCK-8
How it was run: as §1

[3] = target: T3, Ba/F3 stable cells (Homo sapiens, UniProt P00533, T790M/L858R, cells depend on it); settings: Ba/F3-EGFR L858R-T790M cells
T3 construct: EC50 Ba/F3-EGFR L858R-T790M; other: Ba/F3-EGFR L858R-T790M cells, 72 h, CCK-8
How it was run: as §1

[4] = target: T4, Ba/F3 stable cells (Homo sapiens, UniProt P04626, DUP772-775, cells depend on it); settings: Ba/F3-HER2 A775-G776insYVMA cells
T4 construct: EC50 Ba/F3-HER2 A775-G776insYVMA; other: Ba/F3-HER2 A775-G776insYVMA cells, 72 h, CCK-8
T4 sequence (P04626 with tags, fused parts or gaps DUP772-775): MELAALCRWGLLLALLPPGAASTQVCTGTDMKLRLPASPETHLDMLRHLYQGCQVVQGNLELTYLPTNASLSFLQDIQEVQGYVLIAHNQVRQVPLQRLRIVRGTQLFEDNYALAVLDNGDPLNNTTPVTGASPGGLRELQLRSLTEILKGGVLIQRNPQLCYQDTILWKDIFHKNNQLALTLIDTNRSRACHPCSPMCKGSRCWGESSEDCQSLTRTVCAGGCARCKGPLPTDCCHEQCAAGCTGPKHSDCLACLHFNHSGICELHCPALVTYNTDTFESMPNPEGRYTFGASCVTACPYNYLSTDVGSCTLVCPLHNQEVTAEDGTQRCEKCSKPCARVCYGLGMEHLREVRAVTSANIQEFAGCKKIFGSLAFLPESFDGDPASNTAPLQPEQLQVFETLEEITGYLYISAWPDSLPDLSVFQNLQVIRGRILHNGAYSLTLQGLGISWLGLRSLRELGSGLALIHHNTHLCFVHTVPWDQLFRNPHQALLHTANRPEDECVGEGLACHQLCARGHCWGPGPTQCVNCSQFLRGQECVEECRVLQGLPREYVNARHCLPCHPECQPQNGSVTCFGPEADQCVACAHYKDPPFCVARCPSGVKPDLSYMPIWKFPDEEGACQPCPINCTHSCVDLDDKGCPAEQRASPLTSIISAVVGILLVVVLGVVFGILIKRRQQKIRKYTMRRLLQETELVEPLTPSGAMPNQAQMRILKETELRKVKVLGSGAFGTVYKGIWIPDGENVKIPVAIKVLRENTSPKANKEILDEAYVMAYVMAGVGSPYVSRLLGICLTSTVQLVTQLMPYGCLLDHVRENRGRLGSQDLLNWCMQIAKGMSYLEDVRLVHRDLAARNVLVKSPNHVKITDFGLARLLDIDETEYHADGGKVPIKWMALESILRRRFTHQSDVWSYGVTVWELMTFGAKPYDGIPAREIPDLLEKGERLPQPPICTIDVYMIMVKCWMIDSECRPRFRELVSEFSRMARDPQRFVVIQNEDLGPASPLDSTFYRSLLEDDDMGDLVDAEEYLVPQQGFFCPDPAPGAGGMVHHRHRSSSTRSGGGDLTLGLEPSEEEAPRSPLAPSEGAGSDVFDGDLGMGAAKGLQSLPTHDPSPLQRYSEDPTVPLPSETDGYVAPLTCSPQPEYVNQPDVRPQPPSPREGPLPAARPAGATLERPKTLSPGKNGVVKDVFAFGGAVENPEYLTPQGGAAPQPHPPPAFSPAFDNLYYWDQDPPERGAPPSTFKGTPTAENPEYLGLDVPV
How it was run: as §1

[5] = target: T5, Ba/F3 stable cells (Homo sapiens, UniProt P00533, DUP771-773, cells depend on it); settings: Ba/F3-EGFR H773-V774insNPH cells
T5 construct: EC50 Ba/F3-EGFR H773-V774insNPH; other: Ba/F3-EGFR H773-V774insNPH cells, 72 h, CCK-8
T5 sequence (P00533 with tags, fused parts or gaps DUP771-773): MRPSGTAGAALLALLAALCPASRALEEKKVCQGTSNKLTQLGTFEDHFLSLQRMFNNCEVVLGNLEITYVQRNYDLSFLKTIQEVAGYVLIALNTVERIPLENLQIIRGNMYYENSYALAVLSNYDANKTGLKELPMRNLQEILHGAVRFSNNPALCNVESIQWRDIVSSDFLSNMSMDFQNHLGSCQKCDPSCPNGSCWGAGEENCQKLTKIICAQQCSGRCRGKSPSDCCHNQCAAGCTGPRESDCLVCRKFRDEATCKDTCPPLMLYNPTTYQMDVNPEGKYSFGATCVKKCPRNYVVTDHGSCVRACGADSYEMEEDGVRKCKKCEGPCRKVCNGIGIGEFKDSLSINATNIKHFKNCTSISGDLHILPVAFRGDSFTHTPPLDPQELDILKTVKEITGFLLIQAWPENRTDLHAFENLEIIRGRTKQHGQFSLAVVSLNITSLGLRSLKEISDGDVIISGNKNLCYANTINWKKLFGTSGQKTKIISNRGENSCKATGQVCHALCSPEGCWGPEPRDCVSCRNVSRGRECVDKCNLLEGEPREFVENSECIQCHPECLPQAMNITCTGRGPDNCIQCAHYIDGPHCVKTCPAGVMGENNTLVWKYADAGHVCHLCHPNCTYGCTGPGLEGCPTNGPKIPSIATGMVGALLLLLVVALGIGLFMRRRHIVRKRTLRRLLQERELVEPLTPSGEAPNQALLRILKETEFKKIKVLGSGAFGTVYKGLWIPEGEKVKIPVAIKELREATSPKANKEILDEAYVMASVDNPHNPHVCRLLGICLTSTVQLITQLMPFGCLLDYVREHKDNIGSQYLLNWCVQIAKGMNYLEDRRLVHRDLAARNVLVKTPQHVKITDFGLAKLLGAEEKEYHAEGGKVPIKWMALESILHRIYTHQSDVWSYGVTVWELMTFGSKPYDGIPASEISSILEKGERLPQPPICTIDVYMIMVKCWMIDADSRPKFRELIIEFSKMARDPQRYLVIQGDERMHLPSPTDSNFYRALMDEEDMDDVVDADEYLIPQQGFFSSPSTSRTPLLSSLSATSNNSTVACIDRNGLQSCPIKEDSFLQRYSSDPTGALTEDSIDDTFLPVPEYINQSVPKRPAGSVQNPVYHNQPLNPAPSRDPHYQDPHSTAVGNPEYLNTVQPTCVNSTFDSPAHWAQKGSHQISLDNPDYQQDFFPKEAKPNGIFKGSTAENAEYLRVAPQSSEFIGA
How it was run: as §1

[6] = target: T6, Ba/F3 stable cells (Homo sapiens, UniProt P00533, DUP767-769, cells depend on it); settings: Ba/F3-EGFR V769-D770insASV cells
T6 construct: EC50 Ba/F3-EGFR V769-D770insASV; other: Ba/F3-EGFR V769-D770insASV cells, 72 h, CCK-8
T6 sequence (P00533 with tags, fused parts or gaps DUP767-769): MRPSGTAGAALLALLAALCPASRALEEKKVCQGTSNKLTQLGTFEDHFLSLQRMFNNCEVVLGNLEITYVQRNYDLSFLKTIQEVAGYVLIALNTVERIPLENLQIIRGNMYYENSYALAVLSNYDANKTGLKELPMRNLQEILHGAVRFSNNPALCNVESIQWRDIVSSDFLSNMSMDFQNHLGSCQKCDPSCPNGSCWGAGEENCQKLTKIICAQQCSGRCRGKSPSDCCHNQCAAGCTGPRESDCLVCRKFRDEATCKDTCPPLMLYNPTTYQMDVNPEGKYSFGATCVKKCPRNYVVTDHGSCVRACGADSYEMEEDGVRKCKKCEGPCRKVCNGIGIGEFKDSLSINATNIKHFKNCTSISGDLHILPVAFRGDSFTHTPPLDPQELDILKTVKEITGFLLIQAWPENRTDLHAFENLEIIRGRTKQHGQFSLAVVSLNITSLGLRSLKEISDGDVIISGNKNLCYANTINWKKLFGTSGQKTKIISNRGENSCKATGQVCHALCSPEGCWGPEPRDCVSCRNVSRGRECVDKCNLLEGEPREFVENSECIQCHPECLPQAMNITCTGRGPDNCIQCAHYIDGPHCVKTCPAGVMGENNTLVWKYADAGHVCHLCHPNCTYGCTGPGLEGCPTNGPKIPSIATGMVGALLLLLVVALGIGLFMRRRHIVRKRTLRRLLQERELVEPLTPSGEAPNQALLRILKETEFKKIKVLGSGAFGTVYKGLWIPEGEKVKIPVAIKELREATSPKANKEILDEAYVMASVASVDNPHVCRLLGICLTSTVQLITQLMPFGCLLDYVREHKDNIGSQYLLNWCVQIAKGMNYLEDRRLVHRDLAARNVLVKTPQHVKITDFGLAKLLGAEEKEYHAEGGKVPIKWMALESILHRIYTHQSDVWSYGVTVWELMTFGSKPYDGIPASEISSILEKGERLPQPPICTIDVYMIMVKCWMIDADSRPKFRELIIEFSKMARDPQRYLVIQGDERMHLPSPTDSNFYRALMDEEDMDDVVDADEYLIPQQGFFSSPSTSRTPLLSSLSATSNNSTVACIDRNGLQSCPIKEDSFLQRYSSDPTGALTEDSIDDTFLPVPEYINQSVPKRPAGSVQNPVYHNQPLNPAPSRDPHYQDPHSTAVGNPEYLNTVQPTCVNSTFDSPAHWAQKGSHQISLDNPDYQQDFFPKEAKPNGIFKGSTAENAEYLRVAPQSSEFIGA
How it was run: as §1

Row | Compound | EC50 [1] [nM] | EC50 [2] [nM] | EC50 [3] [nM] | EC50 [4] [nM] | EC50 [5] [nM] | EC50 [6] [nM]
1 | C=CC(=O)N1CCC(Oc2cc3c(NCc4cccc(Cl)c4F)ncnc3cc2OC)CC1 [Compound 116, 1-(4-((4-((3-chloro-2-fluorobenzyl)amino)-7-methoxyquinazolin-6-yl)oxy)piperidin-1-yl)prop-2-en-1-one] | 200 to 1000 | ≤ 200 | 200 to 1000 | ≤ 200 | ≤ 200 | ≤ 200
2 | C=CC(=O)N1CCC(Oc2cc3c(NCc4cc(Cl)cc(Cl)c4)ncnc3cc2OC)CC1 [Compound 117, 1-(4-((4-((3,5-dichlorobenzyl)amino)-7-methoxyquinazolin-6-yl)oxy)piperidin-1-yl)prop-2-en-1-one] | > 1000 | 200 to 1000 | 200 to 1000 | > 1000 | > 1000 | > 1000
3 | C=CC(=O)N1CCC(Oc2cc3c(NCc4cc(Cl)ccc4F)ncnc3cc2OC)CC1 [Compound 118, 1-(4-((4-((5-chloro-2-fluorobenzyl)amino)-7-methoxyquinazolin-6-yl)oxy)piperidin-1-yl)prop-2-en-1-one] | > 1000 | ≤ 200 | > 1000 | 200 to 1000 | > 1000 | > 1000
4 | C=CC(=O)N1CCC(Oc2cc3c(NCc4cccc(Br)c4)ncnc3cc2OC)CC1 [Compound 120, 1-(4-((4-((3-bromobenzyl)amino)-7-methoxyquinazolin-6-yl)oxy)piperidin-1-yl)prop-2-en-1-one] | ≤ 200 | ≤ 200 | 200 to 1000 | 200 to 1000 | ≤ 200 | ≤ 200
5 | C=CC(=O)N1CCC(Oc2cc3c(NCc4cccc(C)c4)ncnc3cc2OC)CC1 [Compound 121, 1-(4-((7-methoxy-4-((3-methylbenzyl)amino)quinazolin-6-yl)oxy)piperidin-1-yl)prop-2-en-1-one] | 200 to 1000 | ≤ 200 | 200 to 1000 | 200 to 1000 | 200 to 1000 | 200 to 1000
6 | C=CC(=O)N1CCC(Oc2cc3c(NCc4cccc(I)c4)ncnc3cc2OC)CC1 [Compound 125, 1-(4-((4-((3-iodobenzyl)amino)-7-methoxyquinazolin-6-yl)oxy)piperidin-1-yl)prop-2-en-1-one] | 200 to 1000 | ≤ 200 | 200 to 1000 | 200 to 1000 | 200 to 1000 | 200 to 1000
7 | C=CC(=O)N1CCC(Oc2cc3c(NC(C(=O)O)c4cccc(Cl)c4)ncnc3cc2OC)CC1 (stereo not drawn) [Compound 126, 2-((6-((1-acryloylpiperidin-4-yl)oxy)-7-methoxyquinazolin-4-yl)amino)-2-(3-chlorophenyl)acetic acid] | > 1000 | > 1000 | > 1000 | > 1000 | > 1000 | > 1000
8 | C=CC(=O)N1CCC(Oc2cc3c(NC(C(N)=O)c4cccc(Cl)c4)ncnc3cc2OC)CC1 (stereo not drawn) [Compound 127, 2-((6-((1-acryloylpiperidin-4-yl)oxy)-7-methoxyquinazolin-4-yl)amino)-2-(3-chlorophenyl)acetamide] | > 1000 | ≤ 200 | > 1000 | > 1000 | > 1000 | 200 to 1000
9 | C=CC(=O)N1CCC(Oc2cc3c(NC(CCO)c4cccc(Cl)c4)ncnc3cc2OC)CC1 (stereo not drawn) [Compound 131, 1-(4-((4-((1-(3-chlorophenyl)-3-hydroxypropyl)amino)-7-methoxyquinazolin-6-yl)oxy)piperidin-1-yl)prop-2-en-1-one] | ≤ 200 | ≤ 200 | > 1000 | ≤ 200 | ≤ 200 | ≤ 200
10 | C=CC(=O)N1CCCC(Oc2cc3c(Nc4ccc(Cl)c(Cl)c4F)ncnc3cc2OC)C1 (stereo not drawn) [Compound 132, 1-(3-((4-((3,4-dichloro-2-fluorophenyl)amino)-7-methoxyquinazolin-6-yl)oxy)piperidin-1-yl)prop-2-en-1-one] | 200 to 1000 | ≤ 200 | > 1000 | 200 to 1000 | 200 to 1000 | 200 to 1000
11 | C=CC(=O)N1CCC(Oc2cc3c(Nc4cnc5ccccc5c4)ncnc3cc2OC)CC1 [Compound 135, 1-(4-((7-methoxy-4-(quinolin-3-ylamino)quinazolin-6-yl)oxy)piperidin-1-yl)prop-2-en-1-one] | 200 to 1000 | ≤ 200 | 200 to 1000 | 200 to 1000 | 200 to 1000 | ≤ 200
12 | C=CC(=O)N1CCC(Oc2cc3c(Nc4ccc5cn[nH]c5c4)ncnc3cc2OC)CC1 [Compound 137, 1-(4-((4-((1H-indazol-6-yl)amino)-7-methoxyquinazolin-6-yl)oxy)piperidin-1-yl)prop-2-en-1-one] | > 1000 | ≤ 200 | > 1000 | 200 to 1000 | > 1000 | 200 to 1000
13 | C=CC(=O)N1CCC(Oc2cc3c(Nc4ccc5cnn(C)c5c4)ncnc3cc2OC)CC1 [Compound 138, 1-(4-((7-methoxy-4-((1-methyl-1H-indazol-6-yl)amino)quinazolin-6-yl)oxy)piperidin-1-yl)prop-2-en-1-one] | 200 to 1000 | ≤ 200 | 200 to 1000 | ≤ 200 | 200 to 1000 | ≤ 200

Results, then the compound that gave them:

Row | EC50 [1] [nM] | EC50 [2] [nM] | EC50 [3] [nM] | EC50 [4] [nM] | EC50 [5] [nM] | EC50 [6] [nM] | Compound
14 | > 1000 | ≤ 200 | > 1000 | > 1000 | > 1000 | > 1000 | C=CC(=O)N1CCC(Oc2cc3c(NCc4cc(Cl)ccc4Cl)ncnc3cc2OC)CC1 [Compound 119, 1-(4-((4-((2,5-dichlorobenzyl)amino)-7-methoxyquinazolin-6-yl)oxy)piperidin-1-yl)prop-2-en-1-one]
15 | 200 to 1000 | ≤ 200 | 200 to 1000 | > 1000 | 200 to 1000 | 200 to 1000 | C=CC(=O)N1CCC(Oc2cc3c(NCc4cc(F)cc(Cl)c4)ncnc3cc2OC)CC1 [Compound 122, 1-(4-((4-((3-chloro-5-fluorobenzyl)amino)-7-methoxyquinazolin-6-yl)oxy)piperidin-1-yl)prop-2-en-1-one]
16 | 200 to 1000 | ≤ 200 | 200 to 1000 | 200 to 1000 | ≤ 200 | ≤ 200 | C=CC(=O)N1CCC(Oc2cc3c(NCc4ccccc4)ncnc3cc2OC)CC1 [Compound 123, 1-(4-((4-(benzylamino)-7-methoxyquinazolin-6-yl)oxy)piperidin-1-yl)prop-2-en-1-one]
17 | > 1000 | ≤ 200 | > 1000 | > 1000 | > 1000 | > 1000 | C=CC(=O)N1CCC(Oc2cc3c(NCc4cccc(C#N)c4)ncnc3cc2OC)CC1 [Compound 124, 3-(((6-((1-acryloylpiperidin-4-yl)oxy)-7-methoxyquinazolin-4-yl)amino)methyl)benzonitrile]
18 | > 1000 | > 1000 | > 1000 | > 1000 | > 1000 | > 1000 | C=CC(=O)N1CCC(Oc2cc3c(NC(CC(=O)O)c4cccc(Cl)c4)ncnc3cc2OC)CC1 (stereo not drawn) [Compound 129, 3-((6-((1-acryloylpiperidin-4-yl)oxy)-7-methoxyquinazolin-4-yl)amino)-3-(3-chlorophenyl)propanoic acid]
19 | > 1000 | ≤ 200 | > 1000 | 200 to 1000 | 200 to 1000 | ≤ 200 | C=CC(=O)N1CCC(Oc2cc3c(NC(CC(N)=O)c4cccc(Cl)c4)ncnc3cc2OC)CC1 (stereo not drawn) [Compound 130, 3-((6-((1-acryloylpiperidin-4-yl)oxy)-7-methoxyquinazolin-4-yl)amino)-3-(3-chlorophenyl)propanamide]
20 | > 1000 | 200 to 1000 | > 1000 | ≤ 200 | > 1000 | > 1000 | C=CC(=O)N1CCC(Oc2cc3c(Nc4ccc5c(c4)CCN5S(C)(=O)=O)ncnc3cc2OC)CC1 [Compound 134, 1-(4-((7-methoxy-4-((1-(methylsulfonyl)indolin-5-yl)amino)quinazolin-6-yl)oxy)piperidin-1-yl)prop-2-en-1-one]
21 | > 1000 | 200 to 1000 | > 1000 | > 1000 | > 1000 | > 1000 | C=CC(=O)N1CCC(Oc2cc3c(Nc4nc5cc(Cl)ccc5o4)ncnc3cc2OC)CC1 [Compound 136, 1-(4-((4-((5-chlorobenzo[d]oxazol-2-yl)amino)-7-methoxyquinazolin-6-yl)oxy)piperidin-1-yl)prop-2-en-1-one]
